# According to ChEMBL document CHEMBL1143015, “Hyrtinadine A, a bis-indole alkaloid from a marine sponge” (J Nat Prod, 2007):
# Experiments:
# [1] = tested on: L1210; assay: Cytotoxicity against mouse L1210 cells; format: cell-based
# [2] = tested on: KB; assay: Cytotoxicity against human KB cells; format: cell-based
smiles,measurement,setting,value
Oc1ccc2[nH]cc(-c3cnc(-c4c[nH]c5ccc(O)cc45)nc3)c2c1 [HYRTINADINE A],IC50,[1],1 mg/L
same,IC50,[2],3 mg/L
